Patent publication US10208081B2, “Bile acid derivatives as FXR/TGR5 agonists and methods of use thereof” (Enanta Pharmaceuticals, Inc., priority 2014, dated 2019)

Molecular target: human FXR (NR1H4) (Homo sapiens (Human), UniProt Q96RI1)
Experiment: Human FXR (NR1H4) Assay (Gal4 promoter driven luciferase reporter, Indigo Bioscience kit IB00601)
Assay type: cell-based
Conditions: for Efficacy (%): efficacy normalized to CDCA set as 100%; for EC50: potency ranges
Source text: Assays Human FXR (NR1H4) Assay
Determination of a ligand mediated Gal4 promoter driven transactivation quantify ligand binding mediated activation of FXR. FXR Reporter Assay kit purchased from Indigo Bioscience (Catalogue number: IB00601) to determine the potency and efficacy of compound developed by Enanta that can induce FXR activation. The principle application of this reporter assay system is to quantify functional activity of human FXR. The assay utilizes non-human mammalian cells, CHO (Chinese hamster ovary) cells engineered to express human NR1H4 protein (referred to as FXR). Reporter cells also incorporate the cDNA encoding beetle luciferase which catalyzes the substrates and yields photon emission. Luminescence intensity of the reaction is quantified using a plate-reading luminometer, Envision. Reporter Cells include the luciferase reporter gene functionally linked to an FXR responsive promoter. Thus, quantifying changes in luciferase expression in the treated reporter cells provides a sensitive surrogate measure of the changes in FXR activity. […] The assay is according to the manufacturer's instructions. In brief, the assay was performed in white, 96 well plates using final volume of 100 ul containing cells with different doses of compounds. Retrieve Reporter Cells from −80° C. storage. Perform a rapid thaw of the frozen cells by transferring a 10 ml volume of 37° C. cell recovery medium into the tube of frozen cells. Recap the tube of Reporter Cells and immediately place it in a 37° C. water bath for 5-10 minutes. Retrieve the tube of Reporter Cell Suspension from the water bath. Sanitize the outside surface of the tube with a 70% alcohol swab, and then transfer it into the cell culture hood. Dispense 90 μl of cell suspension into each well of the 96-well Assay Plate. Transfer the plate into 37° C. incubator, allowing the cells adherent to the bottom of the well. Dilute compounds in Dilution Plate (DP), and administrate to cells at Assay Plate (AP). DMSO content of the samples was kept at 0.2%. Cells were incubated for additional 22 hours before luciferase activities were measured. Thirty minutes before intending to quantify FXR activity, remove Detection Substrate and Detection Buffer from the refrigerator and place them in a low-light area so that they may equilibrate to room temperature. Remove the plate's lid and discard all media contents by ejecting it into an appropriate waste container. Gently tap the inverted plate onto a clean absorbent paper towel to remove residual droplets. Cells will remain tightly adhered to well bottoms. Add 100 μl of luciferase detection reagent to each well of the assay plate. Allow the assay plate to rest at room temperature for at least 5 minutes following the addition of LDR. Set the instrument (Envision) to perform a single 5 second “plate shake” prior to reading the first assay well. Read time may be 0.5 second (500 mSec) per well.

human FXR (NR1H4), sequence (Q96RI1 whole entry, the tested form may be a part): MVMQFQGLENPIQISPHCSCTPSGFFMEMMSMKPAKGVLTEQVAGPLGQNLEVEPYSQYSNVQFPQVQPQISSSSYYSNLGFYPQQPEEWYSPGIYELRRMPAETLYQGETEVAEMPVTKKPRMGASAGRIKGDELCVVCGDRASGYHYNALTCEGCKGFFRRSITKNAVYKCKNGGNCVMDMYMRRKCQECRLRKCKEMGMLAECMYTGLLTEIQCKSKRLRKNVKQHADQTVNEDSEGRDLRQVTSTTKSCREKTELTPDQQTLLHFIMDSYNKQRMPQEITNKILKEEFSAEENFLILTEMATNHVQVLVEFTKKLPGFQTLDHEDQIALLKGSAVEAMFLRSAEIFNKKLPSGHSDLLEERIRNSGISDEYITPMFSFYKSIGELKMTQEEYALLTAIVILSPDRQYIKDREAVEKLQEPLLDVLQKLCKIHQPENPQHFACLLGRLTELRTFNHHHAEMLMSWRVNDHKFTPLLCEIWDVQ

Row | SMILES | Efficacy (%) | EC50 [nM]
1 | CC[C@H]1[C@@H](O)[C@@H]2[C@H](CC[C@]3(C)[C@@H]([C@H](C)CCNC(=O)NS(=O)(=O)N4[C@H](C)CCC[C@@H]4C)CC[C@@H]23)[C@@]2(C)CC[C@@H](O)C[C@@H]12 [Example 96] | 387 | < 100
2 | CC[C@H]1[C@@H](O)[C@@H]2[C@H](CC[C@]3(C)[C@@H]([C@H](C)CCNC(=O)NS(=O)(=O)NC)CC[C@@H]23)[C@@]2(C)CC[C@@H](OC(=O)C(F)(F)F)C[C@@H]12 [Example 126] | 238 | 1000 to 10000
3 | CC[C@H]1[C@@H](O)[C@@H]2[C@H](CC[C@]3(C)[C@@H]([C@H](C)CCN(C)C(=O)NS(=O)(=O)c4ccc(C(C)(C)C)cc4)CC[C@@H]23)[C@@]2(C)CC[C@@H](O)C[C@@H]12 [Example 26] | 378 | 100 to 1000
4 | CC[C@H]1[C@@H](O)[C@@H]2[C@H](CC[C@]3(C)[C@@H]([C@H](C)CCNC(=O)NS(=O)(=O)C[C@]45CCC(CC4=O)C5(C)C)CC[C@@H]23)[C@@]2(C)CC[C@@H](O)C[C@@H]12 [Example 60] | 346 | < 100
5 | CC[C@H]1[C@@H](O)[C@@H]2[C@H](CC[C@]3(C)[C@@H]([C@H](C)CCNC(=O)NS(=O)(=O)c4ccc(F)cc4)CC[C@@H]23)[C@@]2(C)CC[C@@H](O)C[C@@H]12 [Example 94] | 361 | < 100
6 | CC[C@H]1[C@@H](O)[C@@H]2[C@H](CC[C@]3(C)[C@@H]([C@H](C)CCNC(=O)NS(=O)(=O)C(C)(C)CO)CC[C@@H]23)[C@@]2(C)CC[C@@H](O)C[C@@H]12 [Example 122] | 121 | 1000 to 10000
7 | CC[C@H]1[C@@H](O)[C@@H]2[C@H](CC[C@]3(C)[C@@H]([C@H](C)CCNC(=O)NS(=O)(=O)c4ccc(-c5ccccc5)s4)CC[C@@H]23)[C@@]2(C)CC[C@@H](O)C[C@@H]12 [Example 108] | 203 | 100 to 1000
8 | CC[C@H]1[C@@H](O)[C@@H]2[C@H](CC[C@]3(C)[C@@H]([C@H](C)CCNS(=O)(=O)O)CC[C@@H]23)[C@@]2(C)CC[C@@H](O)C[C@@H]12 [Example 131] | 8 | 1000 to 10000
9 | CC[C@H]1[C@@H](O)[C@@H]2[C@H](CC[C@]3(C)[C@@H]([C@H](C)CCNC(=O)NC(C)C)CC[C@@H]23)[C@@]2(C)CC[C@@H](O)C[C@@H]12 [Example 7] | 259 | 1000 to 10000
10 | CC[C@H]1[C@@H](O)[C@@H]2[C@H](CC[C@]3(C)[C@@H]([C@H](C)CCNS(=O)(=O)C(C)(C)C(=O)O)CC[C@@H]23)[C@@]2(C)CC[C@@H](O)C[C@@H]12 [Example 138] | 2 | 1000 to 10000
11 | CC[C@H]1[C@@H](O)[C@@H]2[C@H](CC[C@]3(C)[C@@H]([C@H](C)CCNC(=O)NS(=O)(=O)N4C(C)CCC4C)CC[C@@H]23)[C@@]2(C)CC[C@@H](O)C[C@@H]12 (some centres unmarked) [Example 98] | 344 | < 100
12 | CC[C@H]1[C@@H](O)[C@@H]2[C@H](CC[C@]3(C)C([C@H](C)CCNS(=O)(=O)c4ccccc4)CC[C@@H]23)[C@@]2(C)CC[C@@H](O)C[C@@H]12 (some centres unmarked) [Example 130] | 146 | 1000 to 10000
13 | CC[C@H]1[C@@H](O)[C@@H]2[C@H](CC[C@]3(C)[C@@H]([C@H](C)CCNC(=O)NS(=O)(=O)N4CCCCC4)CC[C@@H]23)[C@@]2(C)CC[C@@H](O)C[C@@H]12 [Example 39] | 379 | < 100
14 | CC[C@H]1[C@@H](O)[C@@H]2[C@H](CC[C@]3(C)[C@@H]([C@H](C)CNS(=O)(=O)C(C)(C)C)CC[C@@H]23)[C@@]2(C)CC[C@@H](O)C[C@@H]12 [Example 143] | 6 | 
15 | CC[C@H]1[C@@H](O)[C@@H]2[C@H](CC[C@]3(C)[C@@H]([C@H](C)CCNC(=O)NS(=O)(=O)c4ccc5c(c4)OCO5)CC[C@@H]23)[C@@]2(C)CC[C@@H](O)C[C@@H]12 [Example 23] | 488 | < 100
16 | CC[C@H]1[C@@H](O)[C@@H]2[C@H](CC[C@]3(C)[C@@H]([C@H](C)CCNC(=O)NS(=O)(=O)c4ccc5ccccc5c4)CC[C@@H]23)[C@@]2(C)CC[C@@H](O)C[C@@H]12 [Example 1] | 337 | < 100
17 | CC[C@H]1[C@@H](O)[C@@H]2[C@H](CC[C@]3(C)[C@@H]([C@H](C)CCNC(=O)NS(=O)(=O)N4C[C@@H](C)O[C@@H](C)C4)CC[C@@H]23)[C@@]2(C)CC[C@@H](O)C[C@@H]12 [Example 75] | 323 | < 100
18 | CC[C@H]1[C@@H](O)[C@@H]2[C@H](CC[C@]3(C)[C@@H]([C@H](C)CCNC(=O)NS(=O)(=O)C(C)(C)C)CC[C@@H]23)[C@@]2(C)CC[C@@H](O)C[C@@H]12 [Example 28] | 323 | < 100
19 | CC[C@H]1[C@@H](O)[C@@H]2[C@H](CC[C@]3(C)[C@@H]([C@H](C)CCNC(=O)NS(=O)(=O)c4ccccc4)CC[C@@H]23)[C@@]2(C)CC[C@@H](O)C[C@@H]12 [Example 4] | 342 | < 100
20 | CC[C@H]1[C@@H](O)[C@@H]2[C@H](CC[C@]3(C)[C@@H]([C@H](C)CCNC(=O)NS(=O)(=O)C4CCCCC4)CC[C@@H]23)[C@@]2(C)CC[C@@H](O)C[C@@H]12 [Example 22] | 477 | < 100
21 | CC[C@H]1[C@@H](O)[C@@H]2[C@H](CC[C@]3(C)[C@@H]([C@H](C)CCNC(=O)NS(=O)(=O)c4ccc(C(C)(C)C)s4)CC[C@@H]23)[C@@]2(C)CC[C@@H](O)C[C@@H]12 [Example 111] | 314 | < 100
22 | CC[C@H]1[C@@H](O)[C@@H]2[C@H](CC[C@]3(C)[C@@H]([C@H](C)CCNC(=O)NS(=O)(=O)C[C@@]45CCC(CC4=O)C5(C)C)CC[C@@H]23)[C@@]2(C)CC[C@@H](O)C[C@@H]12 [Example 61] | 403 | < 100
23 | CC[C@H]1[C@@H](O)[C@@H]2[C@H](CC[C@]3(C)[C@@H]([C@H](C)CCNC(=O)NS(=O)(=O)c4cccc(-c5nc(C)cs5)c4)CC[C@@H]23)[C@@]2(C)CC[C@@H](O)C[C@@H]12 [Example 80] | 295 | 100 to 1000
24 | CC[C@H]1[C@@H](O)[C@@H]2[C@H](CC[C@]3(C)[C@@H]([C@H](C)CCNC(=O)NS(=O)(=O)c4ccc(OC)cc4)CC[C@@H]23)[C@@]2(C)CC[C@@H](O)C[C@@H]12 [Example 15] | 337 | < 100
25 | CC[C@H]1[C@@H](O)[C@@H]2[C@H](CC[C@]3(C)[C@@H]([C@H](C)CCNS(=O)(=O)CCC(=O)O)CC[C@@H]23)[C@@]2(C)CC[C@@H](O)C[C@@H]12 [Example 141] | 16 | 1000 to 10000
26 | CC[C@H]1[C@@H](O)[C@@H]2[C@H](CC[C@]3(C)[C@@H]([C@H](C)CCNC(=O)NS(=O)(=O)c4ccc5c(c4)CCC5)CC[C@@H]23)[C@@]2(C)CC[C@@H](O)C[C@@H]12 [Example 55] | 271 | < 100
27 | CC[C@H]1[C@@H](O)[C@@H]2[C@H](CC[C@]3(C)[C@@H]([C@H](C)CCNC(=O)NS(=O)(=O)N4CC(F)(F)C(F)(F)C4)CC[C@@H]23)[C@@]2(C)CC[C@@H](O)C[C@@H]12 [Example 81] | 315 | < 100
28 | CC[C@H]1[C@@H](O)[C@@H]2[C@H](CC[C@]3(C)[C@@H]([C@H](C)CCNC(=O)NS(=O)(=O)c4ccc(C)c(C)c4)CC[C@@H]23)[C@@]2(C)CC[C@@H](O)C[C@@H]12 [Example 17] | 357 | < 100
29 | CC[C@H]1[C@@H](O)[C@@H]2[C@H](CC[C@]3(C)[C@@H]([C@H](C)CCCNC(=O)NS(=O)(=O)c4ccc(OC(F)(F)F)cc4)CC[C@@H]23)[C@@]2(C)CC[C@@H](O)C[C@@H]12 [Example 18] | 319 | < 100
30 | CC[C@H]1[C@@H](O)[C@@H]2[C@H](CC[C@]3(C)[C@@H]([C@H](C)CCNC(=O)NS(=O)(=O)c4cccc(C(C)(C)C)c4)CC[C@@H]23)[C@@]2(C)CC[C@@H](O)C[C@@H]12 [Example 53] | 263 | < 100
